“And” between values parts separate entries of the source, which are not always exact repeats. Identical values can stand only once.
Assay: Stability study: related substances (% area) after storage
Format: physicochemical
Protocol: A stability study was initiated for Formulation 1A and Formulation 2A. The capsules were packaged in 30 cc HDPE bottles with induction sealed PP caps and the bottles were stored under ICH stability conditions in humidity chambers at 25° C./60% RH and under accelerated conditions, 40° C./75% RH. The capsules were stored at 4-8° C. directly after preparation until they were placed into the stability chambers. […]
Another stability study was initiated for Formulation 5A. The capsules were packaged as per Formulation 1A and Formulation 2A and store under the same conditions.
An Amphotericin B/TPGS/Peceol/Gelucire 44/14 semi-solid lipid based formulation in hard shell capsule was prepared (Formulation 5A) and stored under ICH controlled stability conditions. […] The dissolution profile however decreased (Table 23 and FIG. 9). As indicated before, this behavior could be a result a recrystallization or aggregation of the AmpB.

SMILES: C[C@@H]1[C@H](O)[C@@H](C)/C=C/C=C/C=C/C=C/C=C/C=C/C=C/[C@H](O[C@@H]2O[C@H](C)[C@@H](O)[C@H](N)[C@@H]2O)C[C@@H]2O[C@](O)(C[C@@H](O)C[C@@H](O)[C@H](O)CC[C@@H](O)C[C@@H](O)CC(=O)O[C@H]1C)C[C@H](O)[C@H]2C(=O)O [AmpB (Corealis lot drawing 729)]
- Related Substances, Total % area (T = 0): 7.67 % area
- Related Substances, individual peak % area (T = 0, individual peaks ≥ 0.10%, RRT given): 0.54 % area and 0.12 % area (2×) and 0.32 % area and 0.33 % area and 0.24 % area and 0.60 % area and 0.31 % area and 0.65 % area and 0.69 % area and 0.30 % area and 1.00 % area and 1.47 % area and 0.82 % area and 0.14 % area
- Related Substances, Total % area (T = 1 month 40° C./75% RH): 7.71 % area
- Related Substances, individual peak % area (T = 1 month 40° C./75% RH, individual peaks, RRT): 0.79 % area and 0.13 % area and 0.57 % area and 0.16 % area and 0.32 % area and 0.33 % area and 0.24 % area and 0.59 % area and 0.31 % area (2×) and 0.11 % area and 0.62 % area and 0.69 % area and 1.00 % area and 1.52 % area
- Related Substances, Total % area (T = 3 months 25° C./60% RH): 7.38 % area
- Related Substances, individual peak % area (T = 3 months 25° C./60% RH, individual peaks, RRT): 0.14 % area (2×) and 0.78 % area and 0.15 % area (3×) and 0.48 % area and 0.35 % area and 0.22 % area and 0.54 % area and 0.25 % area and 0.57 % area and 0.77 % area and 0.13 % area and 0.16 % area and 1.03 % area and 1.37 % area
- Related Substances, Total % area (T = 6 months 25° C./60% RH): 7.18 % area
- Related Substances, individual peak % area (T = 6 months 25° C./60% RH, individual peaks, RRT): 0.12 % area and 0.86 % area and 0.14 % area (2×) and 0.52 % area and 0.64 % area and 0.20 % area and 0.71 % area (2×) and 0.56 % area and 0.10 % area and 0.15 % area and 1.01 % area and 1.32 % area
- Related Substances, Total % area (T = 6 months 40° C./75% RH): 7.32 % area
